In US20250035641A1, “COMPOSITIONS AND METHODS RELATED TO PROTEIN LABELING” (The Chinese University of Hong Kong, priority 2023, published 2025):

Legend:
Assay type in all cases: cell-based
HTN-CK2α = HTN-CK2α (Homo sapiens, UniProt P68400); assay: O-GlcNAcylation of HTN-CK2α with 0tfOGT; parameters: 0TPR(463-1046)-; expressed in transfected cells; conditions: vs negative control OGTAC-1H
Experimental: FIGS. 18A and 18B: Immunoblotting analysis of the global O-GlcNAcylation inducing effect of truncated OGTAC-4 and OGTAC-1 on HTN-BRD4 and HTN-CK2α respectively. (A), O-GlcNAcylation inducing effect of OGTAC-4 is dependent on the expression of 0tfOGT. […] The quantification was conducted by immunoblot signal of probe treatment/control as the mean±s.e.m. of n=2 biologically independent experiments. TR, transfection reagent.

HTN-EZH2 = assay: O-GlcNAc inducing effects on HTN-EZH2; conditions: HTN-EZH2:fOGT=1:0.01
Excerpt: FIG. 13: Evaluation of O-GlcNAc inducing effects of OGTAC-1/2/3 on HTN-EZH2 and dose-dependent effect of OGTAC-1 on HTN-EZH2. In the treatment group, transfection ratio is HTN-EZH2:fOGT:=1:0.01.
As there are >20,000 commercially available plasmids for HaloTag-fused human proteins,46 OGTACs can be rapidly tested in a wide range of POIs, enabling time- and dose-dependent manipulation of their specific O-GlcNAcylation level.

endogenous BRD4 = target: T1, endogenous BRD4 (Homo sapiens, UniProt O60885); assay: IP-WB of endogenous BRD4 in cell line stably expressing fOGT
T1 construct: endogenous BRD4 in cell line stably expressing fOGT; endogenous in cells
Excerpt: We next pursued the induction of POI O-GlcNAcylation independent of Halotag; this could facilitate the induction of O-GlcNAcylation on endogenous POIs for their functional dissection. […] As OGTAC-4 directly recruit BRD4, we first try to assess its potency on endogenous BRD4 in cell line stably expressing fOGT. […] Then, we overexpressed BRD4 together with fOGT in HEK293T cells to accommodate the readout to fit in IP-WB detection limit. As expected, in the co-expression system, we validated the O-GlcNAcylation inducing effect of OGTAC-4. […] Of note, OGTAC-4 promoted BRD4 O-GlcNAcylation and the formation of a stable ternary complex between BRD4 and fOGT at concentrations as low as 3 nM (FIG. 4C & FIG. 14). […] This may be due to the sub-stoichiometric catalytic activity of OGTAC-4; at lower concentration, OGTAC-4 can still be effective because after enzymatic transfer of O-GlcNAc from fOGT active site to BRD4, the BRD4 would dissociate from the original ternary complex and other unmodified BRD4 could be recruited to fOGT by OGTAC-4. However, OGTAC-1 covalently linked to HTN-BRD4, and AP1867 binds tightly to fOGT. therefore, once HTN-BRD4 dissociated, free OGTAC-1 molecules may form binary complex with fOGT and inhibit other HTN-BRD4 from formation of new ternary complex. […]

HTN-CK2α, sequence (P68400 with tags, fused parts or gaps): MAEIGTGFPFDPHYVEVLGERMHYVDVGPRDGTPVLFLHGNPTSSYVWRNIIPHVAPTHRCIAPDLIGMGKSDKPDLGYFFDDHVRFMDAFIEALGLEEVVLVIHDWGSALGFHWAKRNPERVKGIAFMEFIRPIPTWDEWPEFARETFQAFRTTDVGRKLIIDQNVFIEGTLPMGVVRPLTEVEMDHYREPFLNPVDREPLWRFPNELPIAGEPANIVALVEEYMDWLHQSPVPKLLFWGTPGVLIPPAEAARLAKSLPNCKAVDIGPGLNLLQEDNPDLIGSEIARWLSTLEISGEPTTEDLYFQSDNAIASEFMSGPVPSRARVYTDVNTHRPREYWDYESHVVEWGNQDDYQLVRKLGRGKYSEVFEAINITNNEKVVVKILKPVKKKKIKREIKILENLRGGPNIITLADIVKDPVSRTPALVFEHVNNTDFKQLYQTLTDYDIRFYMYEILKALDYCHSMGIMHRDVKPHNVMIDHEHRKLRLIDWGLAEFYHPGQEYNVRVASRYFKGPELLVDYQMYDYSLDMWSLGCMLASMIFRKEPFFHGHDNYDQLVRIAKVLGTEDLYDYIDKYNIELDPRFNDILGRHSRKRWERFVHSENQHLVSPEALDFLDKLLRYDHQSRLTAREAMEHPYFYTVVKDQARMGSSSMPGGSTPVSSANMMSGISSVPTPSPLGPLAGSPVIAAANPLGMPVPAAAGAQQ
HTN-CK2α, sequence (P62942+O15294 fused P62942:F37V partner): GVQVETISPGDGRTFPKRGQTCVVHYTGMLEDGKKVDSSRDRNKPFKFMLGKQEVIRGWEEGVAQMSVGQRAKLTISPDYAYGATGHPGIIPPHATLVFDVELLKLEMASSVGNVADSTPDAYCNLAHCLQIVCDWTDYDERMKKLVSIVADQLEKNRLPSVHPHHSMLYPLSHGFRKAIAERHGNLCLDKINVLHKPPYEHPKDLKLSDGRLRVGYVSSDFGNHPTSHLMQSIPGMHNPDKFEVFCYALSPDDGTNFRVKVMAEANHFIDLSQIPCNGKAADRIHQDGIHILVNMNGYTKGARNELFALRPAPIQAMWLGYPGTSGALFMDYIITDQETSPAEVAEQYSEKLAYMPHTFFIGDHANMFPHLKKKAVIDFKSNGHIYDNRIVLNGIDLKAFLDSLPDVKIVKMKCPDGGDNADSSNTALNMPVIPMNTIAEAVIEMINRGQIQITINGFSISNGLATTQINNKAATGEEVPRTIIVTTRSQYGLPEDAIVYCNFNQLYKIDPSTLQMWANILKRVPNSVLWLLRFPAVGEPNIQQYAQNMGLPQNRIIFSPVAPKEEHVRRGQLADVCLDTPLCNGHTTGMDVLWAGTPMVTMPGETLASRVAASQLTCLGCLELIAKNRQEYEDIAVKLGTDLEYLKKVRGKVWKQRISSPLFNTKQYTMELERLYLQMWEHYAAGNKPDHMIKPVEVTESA

| O-GlcNAcylation level of HTN-CK2α with 0tfOGT (HTN-CK2α) | O-GlcNAc signal on endogenous BRD4 (IP-WB, RL2) (endogenous BRD4) | Structure (SMILES) | O-GlcNAcylation-inducing effect on HTN-EZH2 (HTN-EZH2) |
| --- | --- | --- | --- |
| higher O-GlcNAcylation level |  | CC[C@H](C(=O)N1CCCC[C@H]1C(=O)O[C@H](CCc1ccc(OC)c(OC)c1)c1cccc(OCC(=O)NCCOCCOCCCCCCCl)c1)c1cc(OC)c(OC)c(OC)c1 [OGTAC-1, (R)-1-(3-(2-((2-(2-((6-chlorohexyl)oxy)ethoxy)ethyl)amino)-2-oxoethoxy)phenyl)-3-(3,4-dimethoxyphenyl)propyl (S)-1-((S)-2-(3,4,5-trimethoxyphenyl)butanoyl) piperidine-2-carboxylate] | highest O-GlcNAcylation-inducing effects among the three OGTACs |
|  | failed to detect any signal | CC[C@H](C(=O)N1CCCC[C@H]1C(=O)O[C@H](CCc1ccc(OC)c(OC)c1)c1cccc(OCC(=O)NCCCCCCNC(=O)C[C@@H]2N=C(c3ccc(Cl)cc3)c3c(sc(C)c3C)-n3c(C)nnc32)c1)c1cc(OC)c(OC)c(OC)c1 [OGTAC-4, (R)-1-(3-(2-((6-(2-((S)-4-(4-chlorophenyl)-2,3,9-trimethyl-6H-thieno[3,2-f[]8 1,2,4]triazolo[4,3-a][1,4]diazepin-6-yl)acetamido)hexyl)amino)-2-oxoethoxy)phenyl)-3-(3,4-dimethoxyphenyl)propyl (S)-1-((S)-2-(3,4,5-trimethoxyphenyl)butanoyl)piperidine-2-carboxylate] |  |
